Data published in PMC10845951, “Characterization of a selective, iron-chelating antifungal compound that disrupts fungal metabolism and synergizes with fluconazole” (Microbiology Spectrum, 2024).

Key:
C. glabrata WT = test: Cell proliferation with metal supplementation; type: cell-based, Candida glabrata
Description: One-millimolar stocks of metal solutions (CaCl2, CuCl2, FeCl2, FeCl3, MgCl2, MnCl2, and ZnCl2) were prepared in mQH2O and autoclaved. […] Fifty microliters of either mQH2O or metal solution were added to each well, including 50 µL of refreshed C. glabrata WT with an adjusted OD600 of 0.15. The 96-well plates were measured at OD600 and incubated in plastic bags to prevent evaporation for 24 h, after which the final OD600 was measured.

[1] = system: Aft1/2 target genes FTR1, FET3, HMX1, LSO1 in WT S. cerevisiae; test: RT-qPCR of Aft1/2 target genes; type: cell-based, Saccharomyces cerevisiae; conditions: WT Sc cells, 10 µM, 24 h
Description: (§1) WT and […] cells were grown overnight in complete supplement mixture (CSM). […] After 24 h of incubation, cells were collected, and total RNA purification, reverse transcription, and RT-qPCR were performed as previously described with minor modifications ([59], [66]). Briefly, total RNA was purified using the RNeasy Mini Kit (74104, Qiagen), and reverse transcription was performed using the QuantiTect Reverse Transcription Kit (205311, Qiagen). RT-qPCR experiments were done using the HOT FIREPol EvaGreen qPCR Mix (08-36-00001-10, Solis Biodyne) and a LightCycler 96 System (Roche). Expression of the 5S gene was used as a control. The primers used in RT-qPCR experiments are as follows: […]

[2] = system: Aft1/2 target genes in aft1Δ S. cerevisiae; test: RT-qPCR of Aft1/2 target genes in aft1Δ strain; type: cell-based, Saccharomyces cerevisiae; conditions: 10 µM, 24 h
Description: as §1

C. glabrata cells [3] = test: ROS assay (H2DCF-DA fluorescence); type: cell-based, Candida glabrata; conditions: 30 µM
C. glabrata cells [4] = test: CellTiter-Glo assay in Candida (relative ATP levels); type: cell-based, Candida glabrata; conditions: 0.625, 2.5, 10 µM; 1, 3, 6, 24 h
Description: The samples were incubated for 24 h at 30°C and then measured for OD600. Equal number of cells were harvested in each time point according to an OD600 of 0.1–0.4 and then centrifuged at 7000 rpm for 5 minutes to remove the supernatant. The cell pellets were resuspended in 100-µL YNB −iron and then transferred to a 96-well plate. Finally, the samples were treated with 100-µL CellTiter-Glo and then measured for luminescence using a plate reader.

[5] = system: C. glabrata WT (JEY10028) cells; test: Mitochondrial staining with MitoTracker; type: cell-based, Candida glabrata; conditions: 6 h and 24 h, vs DMSO
C. glabrata cells [6] = test: Dead cell staining with propidium iodide; type: cell-based, Candida glabrata; conditions: 24 h
Description: Propidium iodide (Sigma) was freshly prepared to a final concentration of 5 µg/mL in PBS.
The samples were incubated at 30°C and harvested to a total number of cells equivalent to a 5-mL culture with an OD600 of 0.3 at 6 and 24 h. As a positive control for cell death, cells treated with DMSO were incubated at 75°C for 1 h. The cells were centrifuged at 7,000 rpm for 5 minutes to remove the supernatant, followed by resuspension of the cell pellets in 100-µL 5 µg/mL propidium iodide for 10 minutes in the dark at room temperature. The supernatant was removed by centrifugation at 7,000 rpm for 5 minutes, followed by washing with 500-µL PBS and a final centrifugation at 7,000 rpm for 5 minutes. Finally, the cells were resuspended in 150-µL PBS and measured for fluorescence intensity using a microplate reader.
The autofluorescence of the unstained treated samples was subtracted from raw fluorescence intensities of the stained samples and then normalized to DMSO. Normalized values were log transformed and then analyzed using one-way ANOVA and Tukey’s HSD post hoc test.

[7] = system: G. mellonella larvae infected with C. glabrata 2001HT; test: Survival assay in infected Galleria mellonella; type: in vivo; conditions: wild-type C. glabrata (2001HT), 30 µM, vs DMSO
Description: (§2) Galleria mellonella was obtained from R.J. Mous Livebait (The Netherlands). The larvae were selected by weight (0.2–0.3 grams) and by the absence of dark spots on the cuticle. The larvae were maintained at room temperature, and the day before the experiment, they were transferred to the temperature at which the experiment was going to be performed (30°C). The number of dead caterpillars was scored every day. […] G. mellonella were infected with either C. glabrata 2001HT or FL-256; C. glabrata cells were grown in liquid media (Oxoid) overnight at 30°C with moderate shaking (150 rpm). Groups of 20 larvae per strain were infected in each experiment. The pro-leg area was cleaned with 70% ethanol using a swab. The larvae were inoculated with 10 µL of C. glabrata suspension at 2.5 × 10^6 cells/mL in PBS containing 50 µg/mL of ampicillin by injection, using a Hamilton syringe with 26-gauge needle in the last left pro-leg.

[8] = system: G. mellonella larvae infected with C. glabrata FL-256; test: Survival assay in infected Galleria mellonella; type: in vivo; conditions: azole-resistant C. glabrata (FL-256), 30 µM, vs DMSO
Description: as §2

G. mellonella larvae = test: Toxicity of compound to Galleria mellonella larvae; type: in vivo; conditions: high concentration (30 µM)
Description: as §2

HEK-293 and HS-5 cells = test: Incucyte live-cell imaging of treated human cells (morphology, compound precipitation)

In the case of `c1ccc(-c2cccc(-c3ccccn3)n2)nc1` [2,2′:6′,2′′-terpyridine], the “change of EC50 on metal addition” value (C. glabrata WT; +5 µM Cu^2+ (CuCl2), 24 h) is reported as “significantly increased”, the “change of EC50 on metal addition” value (C. glabrata WT; +5 µM FeCl2, 24 h) is reported as “significantly increased” and the “change of EC50 on metal addition” value (C. glabrata WT; +5 µM Zn^2+ (ZnCl2), 24 h) is reported as “significantly increased”. The “expression of Aft1/2 target genes FTR1, FET3, HMX1, LSO1” value [1] was “robust activation”, the “expression of control 5S RNA” value [1] was “no effect” and the “transcriptional responses after deletion of AFT1” value [2] was “attenuated the transcriptional responses”. The ROS formation (C. glabrata cells [3]; 3 or 6 h) was “no ROS formation could be detected”, the ROS formation (C. glabrata cells [3]; 24 h) was “significant ROS production” and the “relative ATP levels (luminescence)” value (C. glabrata cells [4]) was “concentration- and time-dependent reduction in luminescence”. For the same compound, the “MitoTracker Red CMXRos fluorescence” value [5] was “lower fluorescence intensities”, the “number of propidium iodide-positive cells” value (C. glabrata cells [6]; 10 µM, vs DMSO) was “apparent reduction in the number of propidium iodide-positive cells” and the “mode of antifungal effect” value (C. glabrata cells [6]) was “cytostatic effect”. For the same compound, the “propidium iodide fluorescence (cell death)” value (C. glabrata cells [6]; increasing concentrations) was “no significant difference in fluorescence intensity compared to DMSO”, the “survival of infected larvae” value [7] was “significantly improved the survival” and the “survival of infected larvae” value [8] was “significantly improved the survival”. The “toxicity to the larvae” value (G. mellonella larvae) was “well tolerated”, the cell morphology (HEK-293 and HS-5 cells; 100 µM) was “morphological changes” and the “compound precipitation / solubility” value (HEK-293 and HS-5 cells; cell culture medium, up to 100 µM) was “better solubility”.
